Results from the Deep4Chem optical property database.
Blank lines part the entries; values can stand above or below the compound they belong to.

Test: photoluminescence quantum yield (fraction); solvent given as SMILES

SMILES: C(#Cc1nc2ccccc2s1)c1ccc(N(c2ccccc2)c2ccccc2)cc1
photoluminescence quantum yield (in Cc1ccccc1): 0.62

photoluminescence quantum yield (in CS(C)=O): 0.64
photoluminescence quantum yield (in O): 0.76
SMILES: Cn1c2ccc(S(=O)(=O)O)cc2c(=O)c2cc(S(=O)(=O)O)ccc21

photoluminescence quantum yield (in C1CCCCC1): 0.85
SMILES: CCC(C)(C)c1ccc2c(c1)C(CC)(CC)c1cc(-c3ccc4c(c3)C(CC)(CC)c3cc(C(C)(C)CC)ccc3-4)ccc1-2

photoluminescence quantum yield (in ClCCl): 0.41
SMILES: C(=C\c1cnccn1)/c1ccc(N(c2ccccc2)c2ccccc2)cc1

SMILES: FC(F)(F)c1cc2n(n1)[B-]1(c3ccccc3Oc3ccccc31)[n+]1ccc3ccccc3c1-2
photoluminescence quantum yield (in C1CCCCC1): 0.0026
photoluminescence quantum yield (in Cc1ccccc1): 0.0027
photoluminescence quantum yield (in ClCCl): 0.0029

photoluminescence quantum yield (in CCO): 0.48
photoluminescence quantum yield (in O): 0.38
SMILES: CN(C)c1ccc2cc3ccc(=[N+](C)C)cc-3oc2c1

photoluminescence quantum yield (in ClCCl): 0.223
SMILES: Cc1cc2[nH]c3ccccc3c2c2[nH]c3ccccc3c12

photoluminescence quantum yield (in CO): 0.0094
photoluminescence quantum yield (in CS(C)=O): 0.013
SMILES: COc1ccc(NC(=O)C(C(=O)Nc2ccc(OC)cc2)C(c2ccccc2O)c2c(C)[nH]c3ccccc23)cc1 (stereo unspecified)

photoluminescence quantum yield (in C1CCOC1): 0.01
SMILES: CN(C)c1ccc(C2=C(c3ccccc3)c3sc4ccccc4[n+]3[B-](F)(F)O2)cc1

photoluminescence quantum yield (in C1CCOC1): 0.07
SMILES: c1ccc(-c2ccc(-c3ccccc3)s2)cc1

photoluminescence quantum yield (in ClCCl): 0.81
photoluminescence quantum yield (in c1cc(-n2c3ccccc3c3ccccc32)cc(-n2c3ccccc3c3ccccc32)c1): 0.88
SMILES: c1ccc(N(c2ccccc2)c2ccc(-c3ccc4c(c3)C3(c5ccccc5Sc5ccccc53)c3cc(-c5ccc(N(c6ccccc6)c6ccccc6)cc5)ccc3-4)cc2)cc1

SMILES: C(#Cc1ccc2ncsc2c1)c1ccc(N(c2ccc(C#Cc3ccc4ncsc4c3)cc2)c2ccc(C#Cc3ccc4ncsc4c3)cc2)cc1
photoluminescence quantum yield (in Cc1ccccc1): 0.53

SMILES: O=C1NC(=O)c2c1c1c3ccccc3[nH]c1c1[nH]c3ccccc3c21
photoluminescence quantum yield (in C1CCOC1): 0.44
photoluminescence quantum yield (in CC#N): 0.33
photoluminescence quantum yield (in CC(C)OC(C)C): 0.25
photoluminescence quantum yield (in CCCCOCCCC): 0.28
photoluminescence quantum yield (in CCO): 0.26
photoluminescence quantum yield (in CCOC(C)=O): 0.29
photoluminescence quantum yield (in CN(C)C=O): 0.25
photoluminescence quantum yield (in ClCCl): 0.18

photoluminescence quantum yield (in C1CCOC1): 0.001
SMILES: CC(C)(C)c1cc2c(c(C(C)(C)C)c1)O[B-]1(c3ccc([B-]45OC(c6ccccc6)=N[N+]4=Cc4cc(C(C)(C)C)cc(C(C)(C)C)c4O5)cc3)OC(c3ccccc3)=N[N+]1=C2 (stereo unspecified)

photoluminescence quantum yield (in CC#N): 0.03
photoluminescence quantum yield (in ClCCl): 0.99
SMILES: COC(=O)c1cc(=O)n(C)c2cc(-c3ccc(N4CCN(C)CC4)cc3)sc12

SMILES: CCn1c2ccccc2c2cc(-c3cc(-c4ccc5c(c4)c4ccccc4n5CC)nc(N4CCCCC4)n3)ccc21
photoluminescence quantum yield (in C1CCOC1): 0.15
photoluminescence quantum yield (in CCOC(C)=O): 0.14
photoluminescence quantum yield (in CN(C)C=O): 0.17
photoluminescence quantum yield (in Cc1ccccc1): 0.16
photoluminescence quantum yield (in ClCCl): 0.15

photoluminescence quantum yield (in CCO): 0.11
photoluminescence quantum yield (in CO): 0.09
photoluminescence quantum yield (in CS(C)=O): 0.29
SMILES: CN1/C(=C/C=C(/C=C/C2=[N+](C)c3ccccc3C2(C)C)c2ccccc2)C(C)(C)c2ccccc21

photoluminescence quantum yield (in C1CCOC1): 0.37
SMILES: c1ccc(-n2c3c(c4c2-c2ccccc2C42c4ccccc4-c4ccccc42)C2(c4ccccc4-c4ccccc42)c2ccccc2-3)cc1

SMILES: c1ccc(N2c3ccc4ccccc4c3-c3c4ccccc4nc[n+]3[B-]2(c2ccccc2)c2ccccc2)cc1
photoluminescence quantum yield (in C1CCC2CCCCC2C1): 0.07
photoluminescence quantum yield (in C1CCCCC1): 0.06
photoluminescence quantum yield (in CCCCCC): 0.06
photoluminescence quantum yield (in CCOC(C)=O): 0.02
photoluminescence quantum yield (in Cc1ccccc1): 0.03
photoluminescence quantum yield (in ClC(Cl)Cl): 0.01

SMILES: CC1(C)c2ccccc2-c2cc3c4cc(-n5c6ccccc6c6ccccc65)ccc4n(-c4ccc(-c5nc(-c6ccccc6)nc(-c6ccccc6)n5)cc4)c3cc21
photoluminescence quantum yield (in O=P(c1ccccc1)(c1ccccc1)c1ccccc1Oc1ccccc1P(=O)(c1ccccc1)c1ccccc1): 0.84

SMILES: CCCCCCCCOC(=O)c1ccc(-c2cc3ccc4cc(-c5ccc(C(=O)OCCCCCCCC)cc5)cc5ccc(c2)c3c45)cc1
photoluminescence quantum yield (in Cc1ccccc1): 0.33

photoluminescence quantum yield (in CC#N): 1
photoluminescence quantum yield (in CCO): 0.88
photoluminescence quantum yield (in CN(C)C=O): 0.74
photoluminescence quantum yield (in O): 0.89
SMILES: COC(=O)c1ccccc1-c1c2ccc(=[NH2+])cc-2oc2cc(N)ccc12

photoluminescence quantum yield (in ClCCl): 0.7
SMILES: ClP1(Cl)=N[P@@](Cl)(Oc2ccc3ccc4cccc5ccc2c3c45)=N[P@@](Cl)(Oc2ccc3ccc4cccc5ccc2c3c45)=N1

photoluminescence quantum yield (in c1ccccc1): 0.358
SMILES: Cc1nc2c(ccc3ccc(O)cc32)oc1=O

photoluminescence quantum yield (in ClC(Cl)Cl): 0.19
SMILES: c1ccc(-c2nc(-c3ccc(N4CCCC4)cc3)cc(-c3ccc4ccccc4c3)n2)cc1

SMILES: COc1ccc(C2=C3C=CC(C)=[N+]3[B-](F)(F)n3c(C)ccc32)cc1
photoluminescence quantum yield (in C1CCCCC1): 0.42
photoluminescence quantum yield (in C1CCOC1): 0.36
photoluminescence quantum yield (in CC#N): 0.21
photoluminescence quantum yield (in CCOC(C)=O): 0.3
photoluminescence quantum yield (in CO): 0.25
photoluminescence quantum yield (in Cc1ccccc1): 0.52
photoluminescence quantum yield (in ClC(Cl)Cl): 0.46

SMILES: COc1ccc(-c2csc(/C(C#N)=C\Nc3ccc(C#N)cc3)n2)cc1
photoluminescence quantum yield (in CC#N): 0.001
photoluminescence quantum yield (in CCO): 0.001
photoluminescence quantum yield (in CN(C)C=O): 0.003
photoluminescence quantum yield (in Cc1ccccc1): 0.003
photoluminescence quantum yield (in ClCCl): 0.001

SMILES: CCCCCCCCCCCCN1C(=O)c2cccc3c(N(Cc4ccccn4)Cc4ccccn4)c4ccccc4c(c23)C1=O
photoluminescence quantum yield (in C1CCOC1): 0.07
photoluminescence quantum yield (in CCCCCC): 0.06
photoluminescence quantum yield (in CCO): 0.1
photoluminescence quantum yield (in Cc1ccccc1): 0.06
photoluminescence quantum yield (in ClCCl): 0.12

photoluminescence quantum yield (in ClC(Cl)Cl): 0.6
SMILES: CCc1ccc(-c2ccc(-c3nnc(-c4ccc(-c5nnc(-c6ccc(-c7ccc(CC)cc7)s6)o5)cc4)o3)s2)cc1

photoluminescence quantum yield (in ClCCl): 0.09
SMILES: COc1ccc(-c2cc3c(ccc4sc5ccc6sc(-c7ccc(C#N)cc7)cc6c5c43)s2)cc1

photoluminescence quantum yield (in CC#N): 0.2
SMILES: CC(=O)OC[C@H]1O[C@@H](OCC#Cc2ccc(C3=C4C(C)=CC(/C=C/c5ccc(N(C)C)cc5)=[N+]4[B-](F)(F)n4c(/C=C/c5ccc(N(C)C)cc5)cc(C)c43)cc2)[C@H](OC(C)=O)C(OC(C)=O)[C@@H]1OC(C)=O (stereo partly specified)

SMILES: c1ccc2c(c1)c1ccccc1n2-c1ccc(-c2ccc(-c3ccc(-n4c5ccccc5c5ccccc54)nc3-n3c4ccccc4c4ccccc43)nn2)c(-n2c3ccccc3c3ccccc32)n1
photoluminescence quantum yield (in Cc1ccccc1): 0.36

photoluminescence quantum yield (in ClCCl): 0.85
SMILES: FC(F)(F)c1ccccc1B1c2ccccc2Nc2ccccc21

SMILES: Cc1cc2ccccc2cc1C
photoluminescence quantum yield (in C1CCCCC1): 0.56

photoluminescence quantum yield (in CC#N): 0.0066
SMILES: CN(C)C1=Nc2cccc3cccc1c23

SMILES: COc1ccc2c3ccc(OC)cc3n(-c3ccc(-c4nnc(C)o4)cc3)c2c1
photoluminescence quantum yield (in Cc1ccccc1): 0.06

photoluminescence quantum yield (in C1CCCCC1): 0.33
photoluminescence quantum yield (in C1COCCO1): 0.47
photoluminescence quantum yield (in CC#N): 0.28
photoluminescence quantum yield (in CC(C)O): 0.4
photoluminescence quantum yield (in CCCCCC): 0.37
photoluminescence quantum yield (in ClC(Cl)Cl): 0.42
photoluminescence quantum yield (in c1ccccc1): 0.29
SMILES: CC1(C)CCc2c(c3ccccc3c3nc4c(nc23)c2c(c3ccccc34)OC(C)(C)CC2)O1

SMILES: COc1ccc(C2=[N+]3C(=Nc4c(-c5cc(OC)c(OC)c(OC)c5)cc(-c5ccc(OC)cc5)n4[B-]3(F)F)C(c3cc(OC)c(OC)c(OC)c3)=C2)cc1
photoluminescence quantum yield (in Cc1ccccc1): 0.24

photoluminescence quantum yield (in C1CCOC1): 0.38
SMILES: N#Cc1c(N2CCCCC2)cc(-c2ccc(-c3ccccc3)cc2)c2c1CCc1ccccc1-2

photoluminescence quantum yield (in ClC(Cl)Cl): 0.17
SMILES: F[B-]1(F)n2c(cc3ccc4ccccc4c32)C(c2ccc(I)cc2)=C2C=C3CCc4ccccc4C3=[N+]21

photoluminescence quantum yield (in CC#N): 0.472
photoluminescence quantum yield (in O): 0.0868
SMILES: COc1ccc2nc(N)n[n+]([O-])c2c1

SMILES: N#Cc1nc2c(nc1C#N)C1c3ccc(N(c4ccccc4)c4ccccc4)cc3C2c2ccc(N(c3ccccc3)c3ccccc3)cc21
photoluminescence quantum yield (in C1CCCCC1): 0.55
photoluminescence quantum yield (in CC#N): 0.001
photoluminescence quantum yield (in Cc1ccccc1): 0.25
photoluminescence quantum yield (in ClCCl): 0.002

photoluminescence quantum yield (in C1CCCCC1): 0.98
SMILES: c1cc2c3c(c1)OCCCCCCCOc1cccc(c1-c1c4ccccc4c-3c3ccccc13)OCCCCCCCO2

photoluminescence quantum yield (in C1CCCCC1): 0.91
SMILES: Cc1cc(C)c(B2c3cc(C(C)(C)C)ccc3-c3c(-c4ccccc4)ccc4cc(C(C)(C)C)cc2c34)c(C)c1

SMILES: C1=[N+](c2ccccc2)[B-]2(Oc3c1ccc1c4c(ccc31)C=[N+](c1ccccc1)[B-]1(O4)c3ccccc3Oc3ccccc31)c1ccccc1Oc1ccccc12
photoluminescence quantum yield (in Cc1ccccc1): 0.77
photoluminescence quantum yield (in ClCCl): 0.81

photoluminescence quantum yield (in CC#N): 0.837
SMILES: N#Cc1nn(-c2cc(F)cc(F)c2)nc1N1CCCC1

SMILES: CC1(C)c2ccccc2N(c2ccc3c(c2)c2cc(N4c5ccccc5C(C)(C)c5ccccc54)ccc2c2nc(C#N)c(C#N)nc32)c2ccccc21
photoluminescence quantum yield (in Cc1ccccc1): 0.12
photoluminescence quantum yield (in O=P(c1ccccc1)(c1ccccc1)c1cccc(-c2cc(-n3c4ccccc4c4ccccc43)cc(-n3c4ccccc4c4ccccc43)c2)n1): 0.33

photoluminescence quantum yield (in CCO): 0.8
SMILES: CN1c2cc3nc4cc(F)c(F)cc4nc3cc2N(C)C1(C)C

photoluminescence quantum yield (in ClCCl): 0.72
SMILES: COc1ccc2c(c1)CCC1=C(C#Cc3ccc(Cl)cc3)O[B-](F)(F)[O+]=C12

SMILES: Cc1ccccc1-c1cc(-c2ccc(N3c4ccccc4C(C)(C)c4ccccc43)cc2)nc(-c2ccccc2)n1
photoluminescence quantum yield (in CC#N): 0.101
photoluminescence quantum yield (in Cc1ccccc1): 0.777
photoluminescence quantum yield (in ClCCl): 0.884

photoluminescence quantum yield (in ClC(Cl)Cl): 0.38
SMILES: COc1ccc(C2=[N+]3C(=Nc4c(-c5ccccc5)c5c(n4[B-]3(F)F)-c3ccc(OC)cc3CC5)C(c3ccccc3)=C2)cc1

photoluminescence quantum yield (in CCCCCC): 0.25
SMILES: CC(C)[Si](C#Cc1c2nc3ccccc3nc2c(C#C[Si](C(C)C)(C(C)C)C(C)C)c2nc3c(ccc4cc5ccccc5cc43)nc12)(C(C)C)C(C)C

photoluminescence quantum yield (in C1CCCCC1): 0.13
photoluminescence quantum yield (in CC#N): 0.01
photoluminescence quantum yield (in ClC(Cl)Cl): 0.05
SMILES: O=C1Cc2cc3c(cc2CCCc2ccc(cc2)CCC3)CC(=O)Cc2ccc(c3nsnc23)C1

SMILES: CC(=O)c1ccc2ccc3cccc4ccc1c2c34
photoluminescence quantum yield (in C1CCOC1): 0.002
photoluminescence quantum yield (in CC#N): 0.002
photoluminescence quantum yield (in CCCCCC): 0.002
photoluminescence quantum yield (in CCO): 0.012
photoluminescence quantum yield (in CN(C)C=O): 0.002
photoluminescence quantum yield (in CO): 0.014
photoluminescence quantum yield (in Cc1ccccc1): 0.003
photoluminescence quantum yield (in ClCCl): 0.002

photoluminescence quantum yield (in CC#N): 0.41
SMILES: CCOC(=O)c1c2c3c(ccc([N+](=O)[O-])c3c3cc4ccccc4cc13)N(C)C2=O

photoluminescence quantum yield (in CO): 0.59
SMILES: CC1=CC(/C=C/c2ccc(OCCCN=[N+]=[N-])cc2)=[N+]2C1=C(c1ccc(N(C)C)cc1)c1c(C)cc(C)n1[B-]2(F)F
